Assays:
[1] = tested on: human iPS cell line (201B7); assay: Optical microscopic observation of survival of cultured human iPS cells; type: cell-based; settings: reagent added to culture in HSM, observed after 3 days; M50054 at 100 μg/mL
Description: (§1) A human iPS cell line (201B7; Riken Cell Bank) was seeded to a 25-cm^2 flask (manufactured by Asahi Glass Co., Ltd.), a 6-well plate (manufactured by Asahi Glass Co., Ltd.), or a 96-well flat-bottomed plate (manufactured by Asahi Glass Co., Ltd.), which is coated with Matrigel, and was cultured in a 5% CO2 incubator at 37° C. The coating with Matrigel was performed by: adding a solution prepared by adding 8.7 ml of Dalbecco's Modified Eagle's Medium/Nutrient F-12 Ham (manufactured by Sigma) to 0.3 ml of Matrigel™ (manufactured by Becton Dickinson) to a 25-cm^2 flask, a 6-well plate, and a 96-well flat-bottomed plate, in amounts of 1 ml, 0.5 ml, and 20 μl, respectively; and leaving the whole to stand still at room temperature for 30 minutes. ReproFF (manufactured by ReproCELL Incorporated) was used as a cell culture medium. ReproFF is a culture medium for culturing primate ES cells or human IFS cells while maintaining the pluripotency. The cells were passaged by culture using a 25-cm^2 flask. The cells were dispersed as described below. After the aspiration of the medium, the 25-cm^2 flask was rinsed with 1 ml of physiological saline per flask. After the aspiration of the saline, 0.5 ml of Accutase (manufactured by Innovative Cell Technologies) was added and the cells were incubated in an incubator for 5 minutes. 0.5 ml of ReproFF was added, and the cells were harvested. Then, the cells were centrifuged at 1,000 rpm for 3 minutes. The supernatant was removed by aspiration, and then the precipitated cells were used by being suspended in ReproFF.
An optical microscope CKX41N-31PHP (manufactured by Olympus Corporation) was used for an optical microscopic observation of cells. […]
Further, RNA was extracted and the expression levels of various genes were analyzed by real-time quantitative PCR. […]
The resultant cells were observed under an optical microscope. In addition, the expression level of AFP in the resultant cells was measured.

[2] = tested on: AFP gene; assay: AFP gene expression in cultured iPS cells by real-time quantitative PCR; type: cell-based, human; settings: for expression level of AFP gene: 2 days in HSM plus compound alone (10 μM)
Description: as §1
A medium used in a search study on various growth factors (hereinafter abbreviated as iPSm[-]) was prepared by adding 20% Knockout™ Serum Replacement (hereinafter abbreviated as KSR; manufactured by Life Technologies), Minimum Essential Amino Acids (manufactured by Life Technologies), 2 mM L-glutamine (manufactured by Life Technologies), and 1 mM 2-mercaptoethanol (manufactured by Sigma-Aldrich) to Dulbecco's […]-F12 (manufactured by Sigma-Aldrich) (Takahashi, K. et al., “Induction of Pluripotent Stem Cells from Adult Human Fibroblasts by Defined Factors,” Cell, 2007, Vol. 131, No. 5, p. 861-872).
Cell differentiation was confirmed by measuring an expression gene by real-time quantitative PCR. RNA was extracted by using Isogen (manufactured by NIPPON GENE) according to the manufacturer's instructions. 5 μg of total RNA was synthesized by using Superscript3 first-strand synthesis system for PCR (manufactured by Life Technologies) and an oligo dT primer according to the manufacturer's instructions. Real-time quantitative PCR was performed using 4 ng of synthesized cDNA per sample. PCR was performed as follows: PCR were 40 cycles of denaturation for 5 seconds and annealing-extension for 5 seconds. SYBR Green Master Mix (manufactured by Life Technologies) was used for the reaction. Mini Opticon system (manufactured by Bio-Rad) was used for detection in real-time PCR. The expression level of each gene was calculated as an average value of data obtained from three wells. Ribosomal protein L (RPL)-19 was used as an internal control and the expression level of each gene was represented as a relative expression level to the expression level of RPL-19.
First, iPS cells were cultured in HSM to confirm differentiation of the iPS cells to hepatocytes. Specifically, iPS cells were cultured in HSM for 2 days, and then gene expression in the cells was measured by real-time quantitative PCR. Thus, the induction of differentiation of iPS cells to hepatocytes was detected. ReproFF was used as a control medium and similar investigations were performed.
In this Example, the addition of NEAA and sodium pyruvate (1 mM) to HSM was investigated for the purpose of enhancing the survival of iPS cells. Specifically, iPS cells were cultured for 2 days in a medium prepared by adding NEAA and sodium pyruvate (1 mM) to HSM, and the expression of AFP gene was measured by real-time quantitative PCR. […]

[3] = tested on: human iPS cell line (201B7); assay: Cell proliferation assay (MTS assay) of surviving iPS cells; type: cell-based
Description: A human iPS cell line (201B7, Riken Cell Bank) was seeded to a 96-well flat-bottomed plate coated with Matrigel at 1,000 cells/50 μl per well. After 48 hours of culture, 3-(4,5-dimethylthiazol-2-yl)-5-(3-carboxymethoxyphenyl)-2-(4-sulfophenyl)-2H-tetrazolium inner salt (MTS; manufactured by Promega) was added at 5 μl per well, and the cells were incubated in an incubator for 2 hours. After that, cell proliferation was verified by measuring an absorbance at a wavelength of 490 nm with iMark™ Microplate Absorbance Reader (manufactured by Bio-Rad).
In view of the foregoing, MTS assay was performed 48 hours after the addition of M50054.

[4] = 1 week in iPSm(-) supplemented with growth factor
[5] = 48 hours in HSM supplemented with the factor alone

Molecule: O=C(O)c1ccc(Cl)c(S(=O)(=O)Nc2cccc([N+](=O)[O-])c2)c1 [CTP inhibitor, 4-chloro-3-[[(3-nitrophenyl)amino]sulfonyl]-benzoic acid]
- survival of iPS cells observed with an optical microscope [1]: died

Molecule: O=C1OC(C=Cc2ccccc2)=N/C1=C\c1cccnc1 [DAPK inhibitor, (4Z)-4-(3-pyridylmethylene)-2-styryl-oxazol-5-one]
- survival of iPS cells observed with an optical microscope [1]: died

Molecule: CC(=O)Nc1ccc(Cc2ccc(NC(C)=O)cc2)cc1 [FH1, N,N′-(methylenebis(4,1-phenylene))diacetamide]
- expression level of AFP gene [2]: did not exhibit such effect

Molecule: Cc1ccc(Cl)cc1N(CC(=O)Nc1c(F)cccc1F)S(C)(=O)=O [FPH1, 2-(N-(5-chloro-2-methylphenyl)methylsulfonamido)-N-(2,6-difluorophenyl)acetamide]
- expression level of AFP gene [2]: increased

Molecule: O=C1CCCC(=O)C1CC1C(=O)CCCC1=O [M50054, 2,2′-methylenebis(1,3-cyclohexanedione)]
- expression of AFP gene ([2]; 48 hours in HSM plus M50054 at […] as printed): upregulated
- MTS assay value, one-way analysis of variance ([3]; 100 μg/mL compared to 0 μg/mL and 1,000 μg/mL, P<0.05): significantly high value
- cell toxicity (MTS assay) ([3]; 1,000 μg/mL): showed cell toxicity
- absorbance in MTS assay (surviving cells) ([3]; 48 hours after addition of M50054, 100 g/mL as printed): maximum absorbance
- survival of iPS cells observed with an optical microscope [1]: some of the iPS cells survived

Molecule: HGF: hepatocyte growth factor, commercially available from Wako Pure Chemical Industries
- expression of AFP gene [2, 4]: upregulating effect

B1: oncostatin M: cytokine of the IL-6 family (protein, UniProt P13725 26-221, looked up)
Oncostatin-M: AAIGSCSKEYRVLLGQLQKQTDLMQDTSRLLDPYIRIQGLDVPKLREHCRERPGAFPSEETLRGLGRRGFLQTLNATLGCVLHRLADLEQRLPKAQDLERSGLNIEDLEKLQMARPNILGLRNNIYCMAQLLDNSDTAEPTKAGRGASQPPTPTPASDAFQRKLEGCRFLHGYHRFMHSVGRVFSKWGESPNRSRR
- expression of AFP gene [2, 4]: upregulating effect
- expression of AFP gene, compared to HGF [2, 5]: high upregulating effect
- expression of AFP gene, compared to fetal liver [2, 5]: more upregulated than the expression of the gene in fetal liver
